Assay results: patent US7994185B2, “Benzene sulfonamide thiazole and oxazole compounds” (Glaxo Smith Kline LLC, priority 2008, dated 2011)
Like-named read-outs stand apart in the source and are kept apart here.

Columns and labels:
[1] = system: Human melanoma cancer cells (SK-MEL-28); experiment: Cell growth inhibition assay (CellTiter-Glo), SK-MEL-28; assay type: cell-based
[2] = molecular target: T1, BRAFV600E full-length (amino acids 2-766) (Homo sapiens, UniProt P15056, V600E); experiment: B-Raf Accelerated MEK ATPase assay (BRAMA); assay type: biochemical; conditions: categorized
T1 construct: His6-tagged BRAFV600E full-length (amino acids 2-766); His6; made in house; host or cells: baculovirus expression system (insect cells)
T1 sequence (P15056 2-766 V600E): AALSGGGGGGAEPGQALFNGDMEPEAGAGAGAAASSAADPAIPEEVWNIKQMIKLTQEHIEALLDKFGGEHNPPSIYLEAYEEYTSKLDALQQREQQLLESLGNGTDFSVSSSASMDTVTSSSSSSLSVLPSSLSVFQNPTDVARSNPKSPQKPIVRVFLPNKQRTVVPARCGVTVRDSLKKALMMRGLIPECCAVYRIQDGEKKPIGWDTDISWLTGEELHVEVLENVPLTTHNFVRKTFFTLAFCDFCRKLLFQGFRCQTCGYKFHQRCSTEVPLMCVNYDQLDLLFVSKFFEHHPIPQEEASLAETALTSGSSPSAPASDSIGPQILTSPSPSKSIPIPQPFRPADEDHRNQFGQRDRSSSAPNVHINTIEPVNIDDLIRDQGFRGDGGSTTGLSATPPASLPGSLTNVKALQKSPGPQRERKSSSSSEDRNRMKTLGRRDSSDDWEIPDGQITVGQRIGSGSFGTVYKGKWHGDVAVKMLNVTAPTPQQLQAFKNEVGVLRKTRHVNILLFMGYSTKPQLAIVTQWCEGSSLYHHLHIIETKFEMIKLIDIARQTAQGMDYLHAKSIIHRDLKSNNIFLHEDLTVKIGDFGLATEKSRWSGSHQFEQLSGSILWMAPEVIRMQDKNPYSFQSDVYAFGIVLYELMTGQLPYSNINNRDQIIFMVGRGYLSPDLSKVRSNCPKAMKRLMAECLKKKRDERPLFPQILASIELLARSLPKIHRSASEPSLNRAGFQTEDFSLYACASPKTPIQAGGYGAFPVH
Summary of the method: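 Coupled-enzyme readout: ADP generated by MEK-mediated ATP hydrolysis, uncoupled from ERK phosphorylation, is linked to NADH oxidation through pyruvate kinase and lactate dehydrogenase.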

[3] = system: Human colon tumor cells (Colo205); experiment: Cell growth inhibition assay (CellTiter-Glo), Colo205; assay type: cell-based
Summary of the method: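 Read-out was CellTiter-Glo luminescence (total ATP as a cell-number surrogate), expressed as % inhibition against DMSO vehicle wells. Before that, cells grown in RPMI/10% FBS were treated for 3 days at 37 °C with ten 1:3-spaced compound concentrations, final DMSO 0.2%.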

[4] = SK-MEL-28, 72 h, Table 3a, 3 days incubation, read-out: Activity in SK-MEL-28 Tumor Cells
[5] = SK-MEL-28, Table 3b, later runs, average for the one or more runs, categorized, read-out: IC50 for SK-MEL-28
[6] = B-Raf Activity, Table 1a, highest pIC50 for the one or more runs
[7] = B-Raf pIC50, Table 1b, later runs, average pIC50 for the one or more runs
[8] = COLO 205, 72 h, Table 2a, 3 days incubation, read-out: Activity in Colo205 Tumor Cells
[9] = COLO 205, Table 2b, later runs, average for the one or more runs, categorized, read-out: IC50 for Colo205
[10] = Table 1b, later runs, average pIC50 for the one or more runs, read-out: B-Raf pIC50 (converted)

SMILES | IC50 [1, 4] [nM] | IC50 [1, 5] [nM] | IC50 [2, 6] [nM] | IC50 [2, 7] [nM] | IC50 [3, 8] [nM] | IC50 [3, 9] [nM] | IC50 [2, 10] [nM]
Nc1nccc(-c2sc(N3CCOCC3)nc2-c2cccc(NS(=O)(=O)c3cccnc3)c2F)n1 [Example 61, N-{3-[5-(2-Amino-4-pyrimidinyl)-2-(4-morpholinyl)-1,3-thiazol-4-yl]-2-fluorophenyl}-3-pyridinesulfonamide] | 100 to 1000 | 100 to 1000 | < 100 | ≤ 3.16 | 100 to 1000 | 100 to 1000 | –
CC(C)(C)c1nc(-c2cccc(NS(=O)(=O)c3cc(F)ccc3F)c2F)c(-c2ccnc(CCC(=O)N3CCOCC3)n2)s1 [Example 254, N-[3-(2-(1,1-dimethylethyl)-5-{2-[3-(4-morpholinyl)-3-oxopropyl]-4-pyrimidinyl}-1,3-thiazol-4-yl)-2-fluorophenyl]-2,5-difluorobenzenesulfonamide] | – | < 100 | – | – | – | 100 to 1000 | 3.16 to 31.6
COCCNc1nccc(-c2sc(C(C)C)nc2-c2ccc(F)c(NS(=O)(=O)c3c(F)cccc3F)c2)n1 [Example 159] | 100 to 1000 | 100 to 1000 | 100 to 1000 | 31.6 to 1000 | 100 to 1000 | 100 to 1000 | –
CS(=O)(=O)N1CCC(Nc2nccc(-c3sc(C4CCC4)nc3-c3cccc(NS(=O)(=O)c4cc(F)ccc4F)c3F)n2)CC1 [Example 81, N-{3-[2-Cyclobutyl-5-(2-{[1-(methylsulfonyl)-4-piperidinyl]amino}-4-pyrimidinyl)-1,3-thiazol-4-yl]-2-fluorophenyl}-2,5-difluorobenzenesulfonamide] | < 100 | < 100 | < 100 | ≤ 3.16 | < 100 | < 100 | –
CC(C)(C)c1nc(-c2cccc(NS(=O)(=O)c3c(F)cccc3F)c2Cl)c(-c2ccnc(N)n2)s1 [Example 236, N-{3-[5-(2-amino-4-pyrimidinyl)-2-(1,1-dimethylethyl)-1,3-thiazol-4-yl]-2-chlorophenyl}-2,6-difluorobenzenesulfonamide] | – | < 100 | – | ≤ 3.16 | – | < 100 | –
CC(C)c1nc(-c2ccc(F)c(NS(=O)(=O)c3cn(C)cn3)c2)c(-c2ccnc(NCCCS(C)(=O)=O)n2)s1 [Example 36, N-{2-Fluoro-5-[2-(1-methylethyl)-5-(2-{[3-(methylsulfonyl)propyl]amino}-4-pyrimidinyl)-1,3-thiazol-4-yl]phenyl}-1-methyl-1H-imidazole-4-sulfonamide] | > 1000 | – | 100 to 1000 | 31.6 to 1000 | > 1000 | – | –
CC(C)(C)c1nc(-c2c(F)ccc(NS(=O)(=O)c3cccc(F)c3)c2F)c(-c2ccncn2)s1 [Example 221, N-{3-[2-(1,1-dimethylethyl)-5-(4-pyrimidinyl)-1,3-thiazol-4-yl]-2,4-difluorophenyl}-3-fluorobenzenesulfonamide] | – | < 100 | – | ≤ 3.16 | – | < 100 | –
Nc1nccc(-c2sc(N3CCOCC3)nc2-c2c(F)ccc(NS(=O)(=O)c3cc(F)ccc3F)c2F)n1 [Example 105, N-{3-[5-(2-Amino-4-pyrimidinyl)-2-(4-morpholinyl)-1,3-thiazol-4-yl]-2,4-difluorophenyl}-2,5-difluorobenzenesulfonamide] | < 100 | < 100 | < 100 | ≤ 3.16 | < 100 | < 100 | –
Cc1csc(S(=O)(=O)Nc2cccc(-c3nc(C(C)(C)C)sc3-c3ccnc(N)n3)c2F)c1 [Example 235, N-{3-[5-(2-amino-4-pyrimidinyl)-2-(1,1-dimethylethyl)-1,3-thiazol-4-yl]-2-fluorophenyl}-4-methyl-2-thiophenesulfonamide] | – | < 100 | – | – | – | < 100 | 3.16 to 31.6
COc1ccc(F)cc1S(=O)(=O)Nc1cccc(-c2nc(C(C)C)sc2-c2ccnc(NCC(C)C)n2)c1F [Example 152] | < 100 | < 100 | < 100 | – | < 100 | < 100 | 3.16 to 31.6
CC(C)(C)c1nc(-c2cccc(NS(=O)(=O)c3cc(F)ccc3F)c2F)c(-c2ccnc(NC3CCN(S(C)(=O)=O)CC3)n2)s1 [Example 130] | < 100 | < 100 | < 100 | ≤ 3.16 | < 100 | < 100 | –
Nc1nccc(-c2sc(N3CCOCC3)nc2-c2cccc(NS(=O)(=O)N3CCCCC3)c2F)n1 [Example 49, N-{3-[5-(2-Amino-4-pyrimidinyl)-2-(4-morpholinyl)-1,3-thiazol-4-yl]-2-fluorophenyl}-1-piperidinesulfonamide] | 100 to 1000 | 100 to 1000 | 100 to 1000 | 31.6 to 1000 | 100 to 1000 | 100 to 1000 | –
CC(C)c1nc(-c2ccc(F)c(NS(=O)(=O)c3c(F)cccc3F)c2)c(-c2ccnc(N[C@H]3CC[C@H](NS(C)(=O)=O)CC3)n2)s1 [Example 141] | < 100 | < 100 | < 100 | – | < 100 | < 100 | 3.16 to 31.6
CC(C)(C)c1nc(-c2cccc(NS(=O)(=O)c3c(F)cccc3F)c2F)c(-c2ccnc(NC3CCN(S(C)(=O)=O)CC3)n2)s1 [Example 78, N-{3-[2-(1,1-Dimethylethyl)-5-(2-{[1-(methylsulfonyl)-4-piperidinyl]amino}-4-pyrimidinyl)-1,3-thiazol-4-yl]-2-fluorophenyl}-2,6-difluorobenzenesulfonamide] | < 100 | < 100 | < 100 | ≤ 3.16 | < 100 | < 100 | –
CC(C)c1nc(-c2ccc(F)c(NS(=O)(=O)c3cc(F)ccc3F)c2)c(-c2ccnc(NC3CCN(CCS(C)(=O)=O)CC3)n2)s1 [Example 126] | 100 to 1000 | 100 to 1000 | < 100 | 31.6 to 1000 | 100 to 1000 | 100 to 1000 | –
CC(C)c1nc(-c2ccc(F)c(NS(=O)(=O)c3c(F)cccc3F)c2)c(-c2ccnc(NCC3CCCO3)n2)s1 (stereo not shown) [Example 5, 2,6-Difluoro-N-[2-fluoro-5-(2-(1-methylethyl)-5-{2-[(tetrahydro-2-furanylmethyl)amino]-4-pyrimidinyl}-1,3-thiazol-4-yl)phenyl]benzenesulfonamide] | 100 to 1000 | 100 to 1000 | 100 to 1000 | 31.6 to 1000 | 100 to 1000 | 1000 to 10000 | –
CC(C)c1nc(-c2ccc(F)c(NS(=O)(=O)c3ccccc3F)c2)c(-c2ccnc(N[C@H]3CC[C@H](NS(C)(=O)=O)CC3)n2)s1 [Example 140] | < 100 | < 100 | < 100 | – | < 100 | < 100 | 3.16 to 31.6
CC(C)(C)c1nc(-c2cccc(NS(=O)(=O)c3ccsc3)c2F)c(-c2ccnc(N)n2)s1 [Example 233, N-{3-[5-(2-amino-4-pyrimidinyl)-2-(1,1-dimethylethyl)-1,3-thiazol-4-yl]-2-fluorophenyl}-3-thiophenesulfonamide] | – | < 100 | – | ≤ 3.16 | – | < 100 | –
CC(C)(C)c1nc(-c2cccc(NS(=O)(=O)c3cc(F)ccc3F)c2F)c(-c2ccnc(NCCO)n2)s1 [Example 210] | < 100 | < 100 | < 100 | ≤ 3.16 | < 100 | < 100 | –
Cc1nccc(-c2sc(C(C)(C)C)nc2-c2cccc(NS(=O)(=O)c3c(F)cccc3F)c2Cl)n1 [Example 239, N-{2-chloro-3-[2-(1,1-dimethylethyl)-5-(2-methyl-4-pyrimidinyl)-1,3-thiazol-4-yl]phenyl}-2,6-difluorobenzenesulfonamide] | – | < 100 | – | – | – | < 100 | 3.16 to 31.6
Nc1nccc(-c2sc(N3CCS(=O)(=O)CC3)nc2-c2cccc(NS(=O)(=O)c3c(F)cccc3F)c2F)n1 [Example 102, N-{3-[5-(2-Amino-4-pyrimidinyl)-2-(1,1-dioxido-4-thiomorpholinyl)-1,3-thiazol-4-yl]-2-fluorophenyl}-2,6-difluorobenzenesulfonamide] | 100 to 1000 | 100 to 1000 | < 100 | – | 100 to 1000 | 100 to 1000 | 3.16 to 31.6
CC(C)(C)c1nc(-c2cccc(NS(=O)(=O)c3cc(F)ccc3F)c2F)c(-c2ccnc(NCCNC(=O)CO)n2)s1 [Example 98, N-{2-([4-[4-(3-{[(2,5-Difluorophenyl)sulfonyl]amino}-2-fluorophenyl)-2-(1,1-dimethylethyl)-1,3-thiazol-5-yl]-2-pyrimidinyl}amino)ethyl]-2-hydroxyacetamide] | < 100 | < 100 | < 100 | ≤ 3.16 | < 100 | < 100 | –
CC(C)CNc1nccc(-c2sc(C3CCOCC3)nc2-c2ccc(F)c(NS(=O)(=O)c3cc(F)ccc3F)c2)n1 [Example 69, 2,5-Difluoro-N-{2-fluoro-5-[5-{2-[(2-methylpropyl)amino]-4-pyrimidinyl}-2-(tetrahydro-2H-pyran-4-yl)-1,3-thiazol-4-yl]phenyl}benzenesulfonamide] | 100 to 1000 | 100 to 1000 | < 100 | ≤ 3.16 | 100 to 1000 | 100 to 1000 | –
